BindingDB's records for doi:10.1016/j.ejmech.2014.09.039 (2014)

Target: Neuronal acetylcholine receptor subunit alpha-7 (Homo sapiens, UniProt P36544)
Assay: Positive allosteric modulation at human alpha7 nACHR expressed in Xenopus oocyte assessed as potentiation of ACh-induced current at holding potential of -80 mV measured as ACh EC50 at 1 uM by electrophysiology (Rvb = 176 uM)

Sequence of Neuronal acetylcholine receptor subunit alpha-7 (P36544 whole entry): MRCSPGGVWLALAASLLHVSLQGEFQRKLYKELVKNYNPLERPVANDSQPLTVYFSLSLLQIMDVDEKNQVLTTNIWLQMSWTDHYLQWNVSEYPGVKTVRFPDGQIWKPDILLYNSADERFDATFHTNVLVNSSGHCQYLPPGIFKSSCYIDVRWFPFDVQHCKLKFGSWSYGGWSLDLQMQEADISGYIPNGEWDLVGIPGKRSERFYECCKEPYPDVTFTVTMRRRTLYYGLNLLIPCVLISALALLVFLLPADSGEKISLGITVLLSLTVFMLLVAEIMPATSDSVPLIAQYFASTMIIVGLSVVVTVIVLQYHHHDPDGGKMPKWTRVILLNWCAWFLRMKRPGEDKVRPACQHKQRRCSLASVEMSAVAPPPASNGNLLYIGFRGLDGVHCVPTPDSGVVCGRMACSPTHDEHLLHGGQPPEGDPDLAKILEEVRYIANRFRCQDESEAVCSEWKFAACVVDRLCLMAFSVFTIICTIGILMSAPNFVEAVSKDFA

Row | Structure (SMILES) | EC50
1 | O=C(/C=C/c1ccc(O)cc1)c1cc(O)ccc1O | 56 µM
2 | O=C(/C=C/c1ccc(O)cc1O)c1cc(O)ccc1O | 125 µM
